The text below walks through data of patent US20250129012A1, “ANTI-INFLAMMATORY AND ANALGESIC COMPOUNDS AND USE THEREOF” (JIANGSU ATOM BIOSCIENCE AND PHARMACEUTICAL CO., LTD., priority 2021, published 2025).

What all share (assay type): in vivo, SD rats
The subject of one assay is TNF-α. Kind of assay: Inflammatory factor experiment A: TNF-α in gouty arthritis rats. Conditions: synovial tissue of knee joints; dose 0.6 mg/kg gavage; day 10. The procedure: (§1) Compounds 14, 17 and 26 were prepared by grinding with 0.5% CMC-Na before administration and into a suspension for gavage at the corresponding concentration (0.06 mg/mL), with a dosage volume of 10 mL/kg. Colchicine, purchased from Sun Chemical Technology (Shanghai) Co., Ltd. with batch no. 49ETRRAS, and was prepared by grinding with 0.5% CMC-Na before administration and into a suspension for gavage at the corresponding concentration (0.06 mg/mL), with a dosage volume of 10 mL/kg.
(§2) The compounds in each group were prepared into a suspension of the corresponding concentration, and the dosage volume was 10 mL/kg.
(§3) The crystalline arthritis model was prepared by intra-articular injection of urate crystals (40 mg/mL in the left ankle joint of each rat). Different doses of the test compounds were given separately by gavage administration. The day of administration was defined as day 1 of the experiment, and the compounds were administered once a day for 10 consecutive days (pre-administration of the drug for 7 days prior to modeling, modeling on day 8, and continuation of the drug for 3 days). The experiment ended on day 10. […]

The subject of another assay is IL-6. Kind of assay: Inflammatory factor experiment A: IL-6 in gouty arthritis rats. Conditions: synovial tissue of knee joints; dose 0.6 mg/kg gavage; day 10. Here is the method:
as §1, §2, §3

For assay [1], the system named is gouty arthritis in rats (urate crystals, left ankle joint). Kind of assay: Pharmacodynamics experiment A on gouty arthritis in rats: paw volume. Particulars: for Paw volume versus model group, in words: time points after modeling; for Paw volume: Mean ± SEM. Here is the method: (§4) Compounds 2, 17, 26 and 27 were prepared by grinding with 0.5% CMC-Na into a suspension of the corresponding concentration (0.06 mg/mL) for gavage before administration, and the volume of administration was 10 mL/kg. […] Before use, 0.5% CMC-Na was used for grinding and prepared into a suspension of the corresponding concentration (0.06 mg/mL) for gavage, and the volume of drug administered was 10 mL/kg.
(§5) Each group of subjects was prepared into a suspension of the corresponding concentration, and the administration volume was 10 mL/kg.
(§6) The crystalline arthritis model was prepared by intra-articular injection of urate crystals (40 mg/mL, in the left ankle joint of each rat). Different doses of the test drug were given separately by gavage administration. The day of administration was defined as day 1 of the experiment, and the drug was administered once a day for 10 consecutive days (pre-administration of the drug for 7 days prior to modeling, modeling on day 8, and continuation of the drug for 3 days). The experiment ended on day 10.
Paw volume was measured before administration, before urate injection, and 2, 4, 8, 10, 24, and 48 h after injection.
(§7) The data obtained from the experiment were statistically analyzed using IBM SPSS Statistics 22.0. All measurements were expressed as Mean±S.E.M s. The data were analyzed using SPSS 22.0 statistical software and variance chi-square test was performed on the parameters.

Assay [2] has the same test system. Kind of assay: Pharmacodynamics experiment A on gouty arthritis in rats: gait score. Further details: Gait Score: scale not given here. Conditions: 0.6 mg/kg gavage; for Gait versus model group, in words: time points after modeling, P<0.05 or P<0.01; for Gait Score: Mean ± SEM. The procedure: as §4, §5, §6
The degree of lameness of the modeled joints was observed and scored at the same time point.
as §7

Assay [3] has the same test system. Kind of assay: Pharmacodynamics experiment A on gouty arthritis in rats: pain score. Further details: Pain score: scale not given here. Conditions: 0.6 mg/kg gavage; for Pain versus model group, in words: time points after modeling, P<0.05 or P<0.01; for Pain score: Mean ± SEM. The procedure: as §4, §5, §6
The pain level was scored using the flexion and extension joint pain test scoring method at the same time point.
as §7

The mark [4] stands for this setting: 2 h after modeling, 0.6 mg/kg gavage.
The mark [5] stands for this setting: 4 h after modeling, 0.6 mg/kg gavage.
[6] abbreviates: 8 h after modeling, 0.6 mg/kg gavage.
Setting [7] is: 10 h after modeling, 0.6 mg/kg gavage.
Where [8] appears, read: 24 h after modeling, 0.6 mg/kg gavage.
Setting [9] is: 48 h after modeling, 0.6 mg/kg gavage.
Setting [10] is: before modeling, 0.6 mg/kg gavage once a day.

Marks after values point to notes of the source that are not given here.

On to `COc1cc2c(c(OC)c1OC)-c1cc(Br)c(OC)c(=O)cc1[C@@H](NC(C)=O)CC2` [Compound 14, (S)—N-(11-bromo-1,2,3,10-tetramethoxy-9-oxo-5,6,7,9-tetrahydrobenzo[a]heptalen-7-yl)acetamide], for which the “Decreased TNF-α percentage %” value with TNF-α is 125.78%. In addition, the “Decreased IL-6 percentage %” value in the assay on IL-6 came to 119.58%.

With `COc1cc2c(c(OC)c1OC)-c1cc(C)c(=O)c(OC)cc1[C@@H](NC(C)=O)CC2` [Compound 17, (S)—N-(1,2,3,9-tetramethoxy-11-methyl-10-oxo-5,6,7,10-tetrahydrobenzo[a]heptalen-7-yl)acetamide], the “Paw volume versus model group, in words” value in assay [1] (0.6 mg/kg gavage) was “significantly reduce the paw volume at 2 h, 8 h, 24 h, and 48 h”. Besides, the Paw volume in assay [1] (setting [4]) was 2.54 ± 0.02** cm^3; in assay [1] (setting [5]) it was 2.58 ± 0.02 cm^3; in assay [1] (setting [6]), 2.54 ± 0.04* cm^3; in assay [1] (setting [7]) it was 2.55 ± 0.03 cm^3; in assay [1] (setting [8]), 2.41 ± 0.05** cm^3; in assay [1] (setting [9]), 2.23 ± 0.03*** cm^3. For the same compound, in assay [1] (setting [10]), the Paw volume came out at 2.19 ± 0.03 cm^3. Moreover, the “Gait versus model group, in words” value in assay [2] is “significantly improved the gait at 2 h, 8 h, and 24 h”. For the same compound, the Gait Score in assay [2] (2 h after modeling) stood at 1.00 ± 0.00; in assay [2] (4 h after modeling), 1.20 ± 0.13; in assay [2] (8 h after modeling) it was 1.00 ± 0.00; in assay [2] (10 h after modeling), 1.10 ± 0.10; in assay [2] (24 h after modeling), 1.10 ± 0.10; in assay [2] (48 h after modeling), 1.10 ± 0.10. In addition, the Gait Score in assay [2] (before modeling) is 0.00 ± 0.00. Moreover, the “Pain versus model group, in words” value in assay [3] is “significantly improved gait at 2 h, 8 h, and 24 h”. Also, the Pain score in assay [3] (2 h after modeling) came out at 3.10 ± 0.64; in assay [3] (4 h after modeling) it was 3.20 ± 0.66; in assay [3] (8 h after modeling), 3.00 ± 0.68; in assay [3] (10 h after modeling) it was 3.30 ± 0.54; in assay [3] (24 h after modeling), 1.30 ± 0.65; in assay [3] (48 h after modeling), 1.60 ± 0.70. In addition, the Pain score in assay [3] (before modeling) is 0.00 ± 0.00. In addition, in the assay with TNF-α, the “Decreased TNF-α percentage %” value turned out to be 107.16%. For the same compound, in the assay with IL-6, the “Decreased IL-6 percentage %” value came to 132.54%.

For the compound `COc1cc2c(c(OC)c1OC)-c1ccc(OC3CCOC3)c(=O)cc1[C@@H](NC(C)=O)CC2` (stereo partly drawn) [Compound 26, (S)—N-(1,2,3-trimethoxy-9-oxo-10-[(tetrahydrofuran-3-yl)oxy]-5,6,7,9-tetrahydrobenzo[a]heptalen-7-yl)acetamide], in assay [1] (0.6 mg/kg gavage), the “Paw volume versus model group, in words” value is “significantly reduce the paw volume at 2 h, 4 h, and 48 h”. Moreover, the Paw volume in assay [1] (setting [4]) is listed as 2.53 ± 0.04* cm^3; in assay [1] (setting [5]) it was 2.54 ± 0.03* cm^3; in assay [1] (setting [6]) it was 2.55 ± 0.04 cm^3; in assay [1] (setting [7]) it was 2.57 ± 0.05 cm^3; in assay [1] (setting [8]), 2.47 ± 0.06 cm^3; in assay [1] (setting [9]), 2.34 ± 0.07* cm^3. The same compound showed a Paw volume in assay [1] (setting [10]) of 2.19 ± 0.04 cm^3. For the same compound, the “Gait versus model group, in words” value in assay [2] is “significantly improved the gait at 2 h, 8 h, and 24 h”. The Gait Score in assay [2] (2 h after modeling) stood at 1.00 ± 0.00; in assay [2] (4 h after modeling) it was 1.10 ± 0.10; in assay [2] (8 h after modeling), 1.20 ± 0.13; in assay [2] (10 h after modeling), 1.30 ± 0.15; in assay [2] (24 h after modeling), 1.10 ± 0.10; in assay [2] (48 h after modeling), 1.10 ± 0.10. The Gait Score in assay [2] (before modeling) was determined as 0.00 ± 0.00. Besides, the “Pain versus model group, in words” value in assay [3] is on record as “significantly improved gait at 2 h”. Further, the Pain score in assay [3] (2 h after modeling) is recorded as 3.00 ± 0.56; in assay [3] (4 h after modeling), 2.90 ± 0.67; in assay [3] (8 h after modeling), 4.30 ± 0.40; in assay [3] (10 h after modeling), 3.80 ± 0.59; in assay [3] (24 h after modeling) it was 3.20 ± 0.51; in assay [3] (48 h after modeling), 2.20 ± 0.73. The same compound showed a Pain score in assay [3] (before modeling) of 0.00 ± 0.00. For the same compound, the “Decreased TNF-α percentage %” value in the assay on TNF-α is given as 160.36%. Also, in the assay on IL-6, the “Decreased IL-6 percentage %” value stood at 113.37%.
